This note sets out measurements from paper PMC3480424, “The Metagenome-Derived Enzymes LipS and LipT Increase the Diversity of Known Lipases” (PLoS ONE, 2012).

Broadly, the stoichiometry N is the number of molecules, sites or subunits per partner or assembly.

Bounds are passed on as bounds.

The target in one experiment is T1, LipT (uncultured bacterium, UniProt K7QE48).
T1 construct: full ORF of 331 residues incl. predicted signal peptide (cleavage Ala21/Val22), C-terminal His6 (pET21a), E. coli BL21(DE3), Ni-NTA; about 36 kDa monomer, multimer (at least dimer)
As to the kind of experiment: spectrophotometric 4-nitrophenol release at […] nm. Format: biochemical. The following applies: 75°C, 0.1 M potassium phosphate pH 8.0.

The next experiment has as its target T2, LipS (Symbiobacterium thermophilum, UniProt Q67MR3).
T2 construct: gene STH2045; full-length, 280 residues, C-terminal His6 (pET21a), E. coli BL21(DE3), Ni-NTA; dimer by SEC
As to the kind of experiment: pNP-decanoate hydrolysis, spectrophotometric at […] nm. Format: biochemical. The conditions noted are these: pNP-decanoate as substrate, 5 min preincubation, 70°C, 10 min.

The subject of experiment [1] is T3, LipS-WT (uncultured bacterium).
T3 construct: crystallization construct LipS-WT with native N-terminus (disordered to about residue 35); space group P4, 4 molecules per asymmetric unit; dimer
In words: X-ray crystal structure, […] Å. It is filed as binding. The following applies: active site next to S126 and H257, contact to D187; spermidine was added as crystallisation additive, residual density interpreted as spermidine; PDB code assigned by order of listing.

The target in experiment [2] is LipS with His6-tag at the C-terminus (LipS-H6) (metagenome-derived (100% identity to Symbiobacterium thermophilum)). As to the kind of experiment: SEC; size exclusion chromatography during purification of LipS for crystallization; conditions not told (ref. 67). In general terms: Size exclusion chromatography separates by hydrodynamic size, large species first.
Experiment [3] addresses LipT (metagenome-derived (97% identity to Thermus scotoductus)). As to the kind of experiment: SDS-PAGE after incomplete heat denaturation; 15% SDS-PAGE of purified LipT after 5 min at 95°C, Coomassie staining.
In experiment [4] the target is wild-type LipS (LipS-WT) (metagenome-derived (100% identity to Symbiobacterium thermophilum)). In words: SEC; size exclusion chromatography during purification of LipS for crystallization; conditions not told (ref. 67).

T1 sequence (K7QE48 1-328 limits assumed): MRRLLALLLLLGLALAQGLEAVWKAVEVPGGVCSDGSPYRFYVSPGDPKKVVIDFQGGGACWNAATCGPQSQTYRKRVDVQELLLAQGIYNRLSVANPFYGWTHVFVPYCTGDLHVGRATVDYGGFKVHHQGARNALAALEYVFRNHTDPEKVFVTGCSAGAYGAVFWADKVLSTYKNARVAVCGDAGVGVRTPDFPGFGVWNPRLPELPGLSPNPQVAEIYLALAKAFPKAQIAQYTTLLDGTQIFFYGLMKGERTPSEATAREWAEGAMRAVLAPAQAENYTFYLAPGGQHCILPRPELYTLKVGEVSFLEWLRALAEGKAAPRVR
T2 sequence (Q67MR3 entry or part of it): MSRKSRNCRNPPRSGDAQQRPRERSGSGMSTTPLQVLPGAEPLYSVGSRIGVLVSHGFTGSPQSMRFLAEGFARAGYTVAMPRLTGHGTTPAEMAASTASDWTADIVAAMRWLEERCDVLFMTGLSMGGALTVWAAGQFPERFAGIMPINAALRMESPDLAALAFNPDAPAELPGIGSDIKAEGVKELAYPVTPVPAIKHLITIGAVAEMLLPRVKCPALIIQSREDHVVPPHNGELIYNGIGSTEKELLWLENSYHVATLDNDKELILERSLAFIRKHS

Consider `CCCCCCCCCC(=O)Oc1ccc([N+](=O)[O-])cc1` [4-nitrophenol-decanoate (C10)], for which the “Km (mol l^-1)” value on LipT is 1.1 • 10^−3 mol l^−1.

`NCCCCNCCCN` [spermidine]: the “inhibition at 3 and 5 mM” value at LipS is on record as “shown to inhibit the activity of LipS with its substrate pNP-decanoate”. For the same compound, the “X-ray crystal structure, 1.99 Å” value in experiment [1] is listed as “Spermidine was used as an additive to improve crystal quality”.

In experiment [2], “LipS with His6-tag at the C-terminus (LipS-H6) (enzyme)” showed a stoichiometry N of 2. As for LipT (enzyme), in experiment [3], the stoichiometry N is > 2. For the compound wild-type LipS (LipS-WT) (enzyme), the stoichiometry N in experiment [4] worked out at 2.
